Laboratory results taken from patent publication US20260131107A1, “CATHETERS” (ConvaTec Limited, priority 2023, published 2026).

Legend:
[1] = tested on: Escherichia coli NCIMB 14067; assay: In vitro direct inoculation method, sulfanilamide comparison (Further Assessment 3); assay type: cell-based
Procedure: (§1) An in vitro direct inoculation method was used to assess the antimicrobial activity of sulfanilamide in an intermittent urinary catheter scenario against […] Escherichia coli NCIMB 14067 and […] Enterococcus faecalis NCTC 12201; two microorganisms associated with urinary tract infections. Sulfanilamide concentrations of 0.1% and 0.01% were tested and bacterial levels monitored over a period of 5 minutes. Representative colonies of the challenge microorganisms, from an 18-24 hour challenge culture plate, were dispersed in MRD to obtain an optical density (OD540 nm) equivalent to approximately 1×10^8 CFU/mL. This was diluted to obtain a working concentration of 1×10^6 CFU/mL. A quantitative count was performed to confirm the inoculum level. The challenge organism was prepared in MRD to a concentration of approximately 1×10^6 CFU/mL. This suspension was added in a 1 mL volume to 9 mL of sample (n=3 per sample, n=2 per control) in a sterile 30 mL universal and pipetted up and down to mix. Following each testing period, 5 seconds, 30 seconds, 1 minute, 2 minutes and 5 minutes, 100 μL of the test solution was transferred to 0.9 mL and 9.9 mL volumes of DENB (1:10 and 1:100 dilutions, respectively). The most appropriate dilutions were inoculated (100 pL) onto duplicate pre-dried (tryptone soy agar) TSA plates and the inoculum spread using separate sterile L-shaped spreaders (for 10-1 and 10-2 dilutions, 0.5 mL were placed onto duplicate plates). The TSA plates were allowed to dry before being inverted and incubated at 35±3° C. for at least 48 hours. Following the incubation period, the number of bacterial colonies were counted on the most appropriate dilution for each dressing type i.e. between 25-250 CFU/plate. The samples tested were: 0.1% sulfanilamide in sterile deionised water (SDW); 0.01% sulfanilamide in SDW; 100 ppm hypochlorous acid in SDW; and a SDW control.

[2] = tested on: Enterococcus faecalis NCTC 12201; assay: as above; assay type: cell-based
Procedure: as §1

[3] = tested on: Escherichia coli NCIMB 14067; assay: Antimicrobial activity along the catheter method (Assessment 6b); assay type: cell-based; conditions: concentration 300 ppm or above; each section of GentleCath Air 2.0 CH14 catheter; two minutes
Procedure: (§2) Representative colonies from an 18-24 hour challenge culture plate were dispersed in maximum recovery diluent (MRD) to obtain an optical density (OD540 nm) equivalent to approximately I×lO^8 CFU/ml. This was diluted to obtain a working concentration of I×lO^4 CFU/ml. A quantitative count was performed to confirm the inoculum level.
The bacteria tested were Escherichia coli NCIMB 14067 which are bacteria that are commonly associated with causing CAUTI.
GentleCath Air 2.0 CH14 (manufactured by ConvaTec Inc.) intermittent urinary catheters were used for the assessment. Each catheter was prepared within a laminar flow cabinet to maintain sterility. In the assessment, each catheter was hydrated with a 100, 150, 200, 300, 675 or 1000 ppm hypochlorous acid solution. A further catheter was hydrated with sterile deionised water (SDW) and was used as a control.
Enough samples were prepared for n=3 and controls for n=1 per challenge organism.
Each catheter was hydrated with a hypochlorous solution as described above, as per the IFU, and removed from its packaging.
Each catheter was cut into three sections, each section having a length of 2.5 cm, beginning at the tip of the catheter (section 1) and ending proximal to the handle of the catheter (section 3). […]

E. faecalis NCTC 12201 = assay: Antimicrobial residual test (Assessment 6c); assay type: cell-based, Enterococcus faecalis; conditions: for Antimicrobial residual test result (growth of challenge organism): 40 µl on sterile filter
Procedure: (§3) Representative colonies from an 18-24 hour challenge culture plate were dispersed in maximum recovery diluent (MRD) to obtain an optical density (OD540 nm) equivalent to approximately I×lO^8 CFU/ml. This was diluted to obtain a working concentration of I×lO^6 CFU/ml. A quantitative count was performed to confirm the inoculum level. The bacteria tested were Escherichia coli NCIMB 14067, Enterococcus faecalis NCTC 12201, which each are commonly associated with causing CAUTI. 40 pl of a hypochlorous acid solution (250 ppm), representative of the amount of hypochlorous acid that is left on a catheter following hydration, was placed onto sterile filters. A 40 pl volume of maximum recovery diluent (MRD) was placed onto a further sterile filter as a negative control. A 40 pl volume of approximate 2% […] was placed onto a further sterile filter as a positive control. The filters used were Grade 427 mm Whatman Filters. Following timepoints of 0 minutes, 30 minutes and 4 hours from adding the hypochlorous acid solutions and control to respective sterile filters, each sterile filter was then inoculated with lOpl of IxlO^6 CFU/ml challenge suspension of bacteria, prepared as described above, and left undisturbed for two minutes (to represent approximate urination time). Following the two minutes, the filters were homogenised in Dey-Engley Neutralising Broth (DENB) and appropriate serial dilutions were performed and inoculated onto pre-dried Tryptone Soy Agar (TSA) plates to establish the bacteria numbers remaining.

[4] = tested on: ESBL Producing Klebsiella pneumoniae NCTC 13465; assay: Direct inoculation method (Assessment 6a); assay type: cell-based; conditions: 250 ppm solution
Procedure: as §2, with “dispersed in a 500 µl aliquot of maximum recovery” for “dispersed in maximum recovery”, “concentration of I×lO^7 CFU/ml. A” for “concentration of I×lO^4 CFU/ml. A”
(§4) The bacteria tested were Escherichia coli NCIMB 14067, ESBL Producing Klebsiella pneumoniae NCTC 13465, Enterococcus faecalis NCTC 12201, Proteus mirabilis NCTC 9559 and Pseudomonas aeruginosa NCIMB 8626, which each are commonly associated with causing CAUTI.
(§5) 5 pl of the I×lO^7 CFU/ml challenge suspension was added to a 500 pl aliquot of hypochlorous acid solution (250 ppm) (n=3 per challenge organism, per timepoint) and mixed to form a suspension.
(§6) Following 10 seconds, 1 minute and 2 minutes from adding the challenge suspension to the aliquot of hypochlorous acid, samples were taken from the suspension to establish the number of challenge organisms remaining. This was performed by removing 100 pl volumes and transferring to 0.9 ml and 9.9 ml DENB (for 1:10 and 1:100 dilutions respectively). Appropriate serial dilutions were performed and inoculated onto pre-dried Tryptone Soy Agar (TSA) plates to establish the numbers remaining.

[5] = tested on: Escherichia coli NCIMB 14067; assay: Direct inoculation method (Assessment 6a); assay type: cell-based; conditions: 250 ppm solution
Procedure: as §2, with “dispersed in a 500 µl aliquot of maximum recovery” for “dispersed in maximum recovery”, “concentration of I×lO^7 CFU/ml. A” for “concentration of I×lO^4 CFU/ml. A”
as §4, §5, §6

[6] = tested on: Pseudomonas aeruginosa NCIMB 8626; assay: Direct inoculation method (Assessment 6a); assay type: cell-based; conditions: 250 ppm solution
Procedure: as §2, with “dispersed in a 500 µl aliquot of maximum recovery” for “dispersed in maximum recovery”, “concentration of I×lO^7 CFU/ml. A” for “concentration of I×lO^4 CFU/ml. A”
as §4, §5, §6

[7] = tested on: Enterococcus faecalis NCTC 12201; assay: Direct inoculation method (Assessment 6a); assay type: cell-based; conditions: 250 ppm solution
Procedure: as §2, with “dispersed in a 500 µl aliquot of maximum recovery” for “dispersed in maximum recovery”, “concentration of I×lO^7 CFU/ml. A” for “concentration of I×lO^4 CFU/ml. A”
as §4, §5, §6

[8] = tested on: Proteus mirabilis NCTC 9559; assay: Direct inoculation method (Assessment 6a); assay type: cell-based; conditions: 250 ppm solution
Procedure: as §2, with “dispersed in a 500 µl aliquot of maximum recovery” for “dispersed in maximum recovery”, “concentration of I×lO^7 CFU/ml. A” for “concentration of I×lO^4 CFU/ml. A”
as §4, §5, §6

E. coli NCIMB 14067 [9] = assay: Antimicrobial residual test (Assessment 6c); assay type: cell-based, Escherichia coli; conditions: for Antimicrobial residual test result (growth of challenge organism): 40 µl on sterile filter
Procedure: as §3

E. coli NCIMB 14067 [10] = assay: Antimicrobial efficacy of very low hypochlorous acid concentrations, suspension test (Further Assessment 2); assay type: cell-based, Escherichia coli; conditions: for bacterial recovery: 10 ppm solution; for numbers of bacteria recovered: after 30 seconds
Procedure: The antimicrobial efficacy of hypochlorous acid was tested at even lower concentrations (10, 25, and 50 ppm) against the challenging organism E. coli NCIMB 14067. The representative colonies of E. coli NCIMB 14067 were dispersed in maximum recovery diluent (MRD) to obtain an optical density (OD540 nm) equivalent to approximately […]. A quantitative plate count was performed on this suspension to determine the total number of viable organisms inoculated. A new suspension was prepared for each concentration tested. A 1000 ppm hypochlorous acid solution was diluted in sterile deionised water to provide the respective 10, 25 and 50 ppm hypochlorous acid solutions. The hypochlorous acid samples were aliquoted into 9 mL volumes and 1 mL of the challenge organism suspension was added and mixed (the final number of bacteria present is now approximately 1×10^6 CFU/mL). Following 5, 30 seconds, 1, 2, and 5 minutes, 100 pL volumes were sampled and transferred to 0.9 mL and 9.9 mL of Dey-Engley Neutralising Broth (DENB) (to provide a 1:10 and 1:100 dilution respectively), and total viable counts were performed to establish the amount present. The plates were left to dry before being inverted and incubated at 35+3° C. for at least 48 hours. A negative control was also tested whereby 1 mL of the challenge organism suspension was added to 9 mL of MRD and tested as previously described. Following the incubation period, the number of CFUs were counted on the most appropriate dilution for each sample i.e. between 25-250 CFU/plate.

[11] = 0.1% and 0.01% in SDW, any timepoint from 5 seconds to 5 minutes
[12] = 100 ppm in SDW, within 5 seconds and for the remaining testing period (to 5 minutes)
[13] = inoculated at 0 hour (plus 2 minutes)
[14] = inoculated at 30 minutes (plus 2 minutes)
[15] = inoculated at 4 hours (plus 2 minutes)
[16] = 250 ppm solution on sterile filter

Nc1ccc(S(N)(=O)=O)cc1 [sulfanilamide, reference compound]
challenge organism numbers compared to the control [1, 11]: no decrease in challenge organism numbers
challenge organism numbers compared to the control [2, 11]: no decrease in challenge organism numbers

OCl [hypochlorous acid]
challenge organism numbers [1, 12]: undetectable numbers
challenge organism numbers [2, 12]: undetectable numbers
bacterial cell death [3]: greater than 93%
Antimicrobial residual test result (growth of challenge organism) (E. faecalis NCTC 12201; [13]): No growth
Antimicrobial residual test result (growth of challenge organism) (E. faecalis NCTC 12201; [14]): Growth
Antimicrobial residual test result (growth of challenge organism) (E. faecalis NCTC 12201; [15]): Growth
time by which antimicrobial activity was exhausted (E. faecalis NCTC 12201; [16]): ≤ 30 min
Bacterial numbers reduced to the detection limit (>5 log reduction) ([4]; 10 seconds): Yes
Bacterial numbers reduced to the detection limit (>5 log reduction) ([4]; 1 minute): Yes
Bacterial numbers reduced to the detection limit (>5 log reduction) ([4]; 2 minutes): Yes
Bacterial numbers reduced to the detection limit (>5 log reduction) ([5]; 10 seconds): Yes
Bacterial numbers reduced to the detection limit (>5 log reduction) ([5]; 1 minute): Yes
Bacterial numbers reduced to the detection limit (>5 log reduction) ([5]; 2 minutes): Yes
Bacterial numbers reduced to the detection limit (>5 log reduction) ([6]; 10 seconds): Yes
Bacterial numbers reduced to the detection limit (>5 log reduction) ([6]; 1 minute): Yes
Bacterial numbers reduced to the detection limit (>5 log reduction) ([6]; 2 minutes): Yes
Bacterial numbers reduced to the detection limit (>5 log reduction) ([7]; 10 seconds): Yes
Bacterial numbers reduced to the detection limit (>5 log reduction) ([7]; 1 minute): Yes
Bacterial numbers reduced to the detection limit (>5 log reduction) ([7]; 2 minutes): Yes
Bacterial numbers reduced to the detection limit (>5 log reduction) ([8]; 10 seconds): Yes
Bacterial numbers reduced to the detection limit (>5 log reduction) ([8]; 1 minute): Yes
Bacterial numbers reduced to the detection limit (>5 log reduction) ([8]; 2 minutes): Yes
Antimicrobial residual test result (growth of challenge organism) (E. coli NCIMB 14067 [9]; [13]): No growth
Antimicrobial residual test result (growth of challenge organism) (E. coli NCIMB 14067 [9]; [14]): Growth
Antimicrobial residual test result (growth of challenge organism) (E. coli NCIMB 14067 [9]; [15]): Growth
time by which antimicrobial activity was exhausted (E. coli NCIMB 14067 [9]; [16]): ≤ 30 min
bacterial recovery (E. coli NCIMB 14067 [10]; 1 minute timepoint): undetectable levels
bacterial recovery (E. coli NCIMB 14067 [10]; at 30 seconds): over 10 CFU/mL
numbers of bacteria recovered (E. coli NCIMB 14067 [10]; 25 ppm solution): undetectable numbers of bacteria
numbers of bacteria recovered (E. coli NCIMB 14067 [10]; 50 ppm solution): undetectable numbers of bacteria
